± gives the standard deviation of the averaged measurements.
Columns and labels:
U-2 OS [1] = test: intracellular GSH:GSSG ratio (calculated); higher = more reduced glutathione pool; conditions: 24 h
Method: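 Intracellular glutathione in U-2 OS cells after 24 h compound treatment at 5, 10 and 20 uM (some at 40 and 80 uM). Total glutathione and GSSG were measured with the GSH/GSSG-Glo kit, and the GSH:GSSG ratio was calculated. Mean of five technical replicate plates.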

U-2 OS [2] = test: total intracellular glutathione (GSH + GSSG) relative to DMSO (% of control); higher = more glutathione; conditions: 24 h
Method: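 Total intracellular glutathione (GSH + GSSG) in U-2 OS cells by GSH/GSSG-Glo after 24 h compound treatment at 5, 10 and 20 uM (some at 40 and 80 uM), as percent of DMSO control. Five technical replicate plates, averaged.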

U-2 OS [3] = test: cell viability (CellTiter-Glo) relative to DMSO (% of control); higher = more viable; conditions: 24 h
Method: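 Cell viability of U-2 OS cells by CellTiter-Glo after 24 h compound treatment at 5, 10 and 20 uM (some at 40 and 80 uM), measured in parallel with the glutathione assay, as percent of DMSO control. Five technical replicate plates, averaged.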

U-2 OS [4] = test: relative cell count vs DMSO (cell painting) (fraction of DMSO control); higher = more cells remaining (less cytotoxic); conditions: 24 h
How it was run: (§1)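 Images taken on an Opera Phenix of U-2 OS cells stained with MitoTracker, concanavalin A, phalloidin, wheat germ agglutinin, Hoechst and SYTO 14 were processed in CellProfiler, with features normalized to DMSO cells on the same plate. The cells, about 1,500 per well in 384-well plates, had been treated by pin tool for 24 h at 37 °C, usually at six 2-fold concentrations from 20 μM to 625 nM. The activity score measures Mahalanobis distance from DMSO wells, and cell count is expressed relative to DMSO wells. Each value averages four replicate plates.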

U-2 OS [5] = test: cell painting activity score (Mahalanobis distance from DMSO wells); higher = stronger morphological phenotype; conditions: 24 h
How it was run: as §1

U-2 OS [6] = test: AUC of culture confluence over time (live-cell imaging) (AUC (confluence % x time)); higher = more confluent culture (less growth inhibition)
How it was run: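 The value is the area under the curve of confluence plotted against time. U-2 OS cells in F-12K medium with 10% FBS were seeded at 750 per well in 384-well plates, then treated by pin tool 24 h later, most compounds at 20, 10 and 5 μM with 0.2% DMSO. At 37 °C, an Incucyte S3 with a 10x objective imaged the wells every 4 h for up to 60 h.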

SMILES	intracellular GSH:GSSG ratio (U-2 OS [1]; 5 µM)	intracellular GSH:GSSG ratio (U-2 OS [1]; 10 µM)	intracellular GSH:GSSG ratio (U-2 OS [1]; 20 µM)	intracellular GSH:GSSG ratio (U-2 OS [1]; 40 µM)	intracellular GSH:GSSG ratio (U-2 OS [1]; 80 µM)	total intracellular glutathione (U-2 OS [2]; 5 µM)	total intracellular glutathione (U-2 OS [2]; 10 µM)	total intracellular glutathione (U-2 OS [2]; 20 µM)	total intracellular glutathione (U-2 OS [2]; 40 µM)	total intracellular glutathione (U-2 OS [2]; 80 µM)	cell viability (U-2 OS [3]; 5 µM)	cell viability (U-2 OS [3]; 10 µM)	cell viability (U-2 OS [3]; 20 µM)	cell viability (U-2 OS [3]; 40 µM)	cell viability (U-2 OS [3]; 80 µM)	relative cell count (U-2 OS [4]; 0.625 µM)	relative cell count (U-2 OS [4]; 1.25 µM)	relative cell count (U-2 OS [4]; 2.5 µM)	relative cell count (U-2 OS [4]; 5 µM)	relative cell count (U-2 OS [4]; 10 µM)	relative cell count (U-2 OS [4]; 20 µM)	relative cell count (U-2 OS [4]; 40 µM)	relative cell count (U-2 OS [4]; 80 µM)	cell painting activity score (U-2 OS [5]; 0.625 µM)	cell painting activity score (U-2 OS [5]; 1.25 µM)	cell painting activity score (U-2 OS [5]; 2.5 µM)	cell painting activity score (U-2 OS [5]; 5 µM)	cell painting activity score (U-2 OS [5]; 10 µM)	cell painting activity score (U-2 OS [5]; 20 µM)	cell painting activity score (U-2 OS [5]; 40 µM)	cell painting activity score (U-2 OS [5]; 80 µM)	AUC of culture confluence over time (U-2 OS [6]; 5 µM)	AUC of culture confluence over time (U-2 OS [6]; 10 µM)	AUC of culture confluence over time (U-2 OS [6]; 20 µM)
C=C(C)[C@@H](CC=C(C)C)C[C@@]12C[C@@H](CC=C(C)C)C(C)(C)[C@@](CC=C(C)C)(C(=O)/C(=C(\O)c3ccc(O)c(O)c3)C1=O)C2=O	21	16.1	24.5	21.3	0.823	96.4 ± 3.2	89 ± 1.9	76.7 ± 6.1	53.2 ± 8.8	5.32 ± 1.5	97 ± 2.7	101 ± 5.7	86.3 ± 7	44.8 ± 18	0.589 ± 0.13	0.996	0.96	0.961	0.986	0.836	0.53	0.267	0.116	5.64	4.81	6.25	5.03	9.54	9.17	14.9	28.1			
COc1cccc2c1C(=O)c1c(O)c3c(c(O)c1C2=O)C[C@@](O)(C(=O)CO)C[C@@H]3O[C@H]1C[C@H](N)[C@H](O)[C@H](C)O1	12.1	13	5.76			51.8 ± 7.2	34.9 ± 5.7	18.7 ± 1.3			54.3 ± 2.8	38.7 ± 6.3	21.7 ± 1.3			0.473 ± 0.035	0.5 ± 0.033	0.431 ± 0.044	0.404 ± 0.081	0.311 ± 0.025	0.2492 ± 0.0023			15.7 ± 0.51	17.8 ± 2.5	18.5 ± 2.1	19.7 ± 0.41	20.8 ± 0.47	24.3 ± 0.053					
CC1=CC(=O)c2ccccc2C1=O	17.1	2.21	1.63	0.957	2.69	36.9 ± 4.5	4.53 ± 0.61	3.31 ± 0.24	2.94 ± 0.44	2.93 ± 0.45	40 ± 5.8	1.01 ± 0.2	1.22 ± 0.21	1.15 ± 0.15	0.692 ± 0.12	0.971	0.921	0.979	0.89	0.643	0.277			4.82	3.53	4.48	6.92	10.5	17.1					
Oc1cccc(-c2nc(N3CCOCC3)c3oc4ncccc4c3n2)c1	22.3	19.6	20.9			58.8 ± 2.2	60.1 ± 3.8	58.6 ± 2.4			58.4 ± 1.5	56.8 ± 2.5	55.17 ± 0.53			0.904	0.875	0.774	0.734	0.738	0.682			9.68	11.3	11.4	11.6	10	11.3					
O=C1C(NCCN2CCOCC2)=C(Cl)C(=O)c2ncccc21						2.27 ± 0.32	1.68 ± 0.27	2.13 ± 0.32			0.456 ± 0.11	0.267 ± 0.043	0.463 ± 0.11			0.572	0.496	0.191	0.0808	0.0881	0.111			13.7	13.9	19.1	25.9	25.2	24.1			13.2	12.9	13
c1cc(SSc2ccns2)sn1	24.1	6.28	4.87	0.0649		93.2 ± 6.5	67.1 ± 14	31.5 ± 34	25.6 ± 43	22.5 ± 43	94.5 ± 3.6	62.9 ± 10	29 ± 8.2	2.06 ± 0.76	0.459 ± 0.058	0.85	0.816	0.752	0.635	0.137	0.116			5.35	4.46	6.31	8.63	14.8	17.2					
CCOc1ccccc1-n1c(C(C)N2CCN(C(=O)COc3ccc(Cl)cc3)CC2)nc2ccccc2c1=O (stereo not drawn)						10.4 ± 0.54	2.5 ± 0.32	1.15 ± 0.16			102 ± 3.5	95.2 ± 4.2	40.6 ± 14			0.983	0.945	0.996	0.969	0.922	0.508			6.32	5.84	6.59	9.13	10.4	14.2			45	40	39.9
